“And” between values parts separate entries of the source, which are not always exact repeats. Equal entries are not always repeated.
How the values were obtained:
[1] = target: T1, Shaker KV channel M356R/A359R/R362Q (Drosophila melanogaster, UniProt P08510, A359R/DEL6-46/M356R/R362Q); experiment: Two-electrode voltage clamp in Xenopus oocytes: 2R motif/R362Q; assay type: cell-based
T1 construct: expressed in transfected cells; host or cells: Xenopus laevis oocytes (RNA injection)
From the text: (§1) The Shaker H4 channel (GenBank accession no. NM_167595.3; [Kamb et al., 1987]), with removed N-type inactivation due to a Δ6-46 deletion (ShH4IR, in Bluescript II KS(+) plasmid; [Hoshi et al., 1990]), is referred to as the WT Shaker KV channel. Addition of two positively charged arginines (M356R/A359R) at the extracellular top of the voltage sensor increases the effect of charged lipophilic compounds ([Ottosson et al., 2014], [2015], [2017]). […] However, for the resin-acid derivatives studied in the present investigation, R362 reduced the effect. Therefore, we specifically refer to the two added arginines just outside S4 (M356R/A359R) as the 2R motif. Mutations were introduced with site-directed mutagenesis and verified with sequencing as described previously ([Börjesson et al., 2010]). RNA injection and oocyte handling were performed as before ([Börjesson et al., 2010]; [Ottosson et al., 2015]). All animal experiments were approved by the Linköping’s local Animal Care and Use Committee.
Electrophysiological experiments were made 1–6 d after RNA injection. K^+ currents were measured with the two-electrode voltage-clamp technique (GeneClamp 500B amplifier; Axon Instruments) as described previously ([Ottosson et al., 2015]; [Silverå Ejneby et al., 2018]). The amplifier’s leak compensation was used, and the currents were low-pass filtered at 5 kHz. The control solution contained (in mM) 88 NaCl, 1 KCl, 15 HEPES, 0.4 CaCl2, and 0.8 MgCl2, and pH was set with NaOH. All experiments were made at room temperature (20°C–23°C). The holding potential was set to −80 mV (or −100 mV if the mutant was not fully closed at −80 mV).
Stock solutions were stored at −20°C and diluted in control solution just before experiments. The test solution was added to the oocyte bath manually with a syringe. […] To make sure all Wu50 molecules were negatively charged, the pH of the control solution was set to 9.0 before the experiments. This pH change had only small effects on channel kinetics and the G(V) relation.
(§2) The conductance, G(V), was calculated as G(V)=I/(V−VK), (1) where I is the steady-state current measured at the end of each test-voltage sweep (100 ms after onset; Clampfit 10.5; Molecular Devices), V is the absolute membrane voltage, and VK is the reversal potential for K^+ ions (set to −80 mV). […] The resin-acid–induced G(V) shift was calculated as V1/2 (compound) − V1/2 (control). The relative change in GMAX was calculated as GMAX (compound) / GMAX (control). The concentration dependence for the G(V) shifts was calculated as ΔV= ΔVMAX/(1 +EC50/c), (3) where ΔV is the voltage shift, ΔVMAX is the voltage shift at saturating concentration, c is the concentration of the tested compound, and EC50 is the concentration at which half-maximum response occurs.

[2] = target: T2, Shaker KV channel M356R/A359R/R362Q/W454A (Drosophila melanogaster, UniProt P08510, A359R/DEL6-46/M356R/R362Q/W454A); experiment: Two-electrode voltage clamp in Xenopus oocytes: 2R motif/R362Q/W454A; assay type: cell-based; settings: 100 μM, pH 9.0, M356R/A359R/R362Q/W454A
T2 construct: expressed in transfected cells; host or cells: Xenopus laevis oocytes (RNA injection)
T2 sequence (P08510 with tags, fused parts or gaps DEL6-46/M356R/A359R/R362Q/W454A): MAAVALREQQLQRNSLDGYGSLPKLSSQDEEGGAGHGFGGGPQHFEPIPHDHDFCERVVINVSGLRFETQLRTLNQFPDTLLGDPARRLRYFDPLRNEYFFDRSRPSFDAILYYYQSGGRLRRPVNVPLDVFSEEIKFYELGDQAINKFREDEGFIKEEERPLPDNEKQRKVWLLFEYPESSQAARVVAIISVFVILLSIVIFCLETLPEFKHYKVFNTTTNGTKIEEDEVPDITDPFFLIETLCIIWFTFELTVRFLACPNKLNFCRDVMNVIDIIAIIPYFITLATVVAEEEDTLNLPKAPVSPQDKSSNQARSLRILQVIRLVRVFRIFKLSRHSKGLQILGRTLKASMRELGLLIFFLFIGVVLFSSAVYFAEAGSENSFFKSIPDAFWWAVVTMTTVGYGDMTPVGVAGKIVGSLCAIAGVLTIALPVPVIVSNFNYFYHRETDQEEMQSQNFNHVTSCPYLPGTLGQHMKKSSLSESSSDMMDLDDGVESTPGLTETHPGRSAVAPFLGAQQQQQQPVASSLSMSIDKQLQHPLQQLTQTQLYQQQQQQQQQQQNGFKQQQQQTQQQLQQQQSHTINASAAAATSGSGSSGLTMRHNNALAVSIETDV
From the text: as §1, with “Mutations were introduced with site-directed mutagenesis and verified with sequencing as described previously ([Börjesson et al., 2010]). RNA injection and oocyte handling were performed as before ([Börjesson et al., 2010]; [Ottosson et al., 2015]). All animal experiments were approved by the Linköping’s local Animal Care and Use Committee.” left out
(§3) Electrophysiological experiments were made 1–6 d after RNA injection. K^+ currents were measured with the two-electrode voltage-clamp technique (GeneClamp 500B amplifier; Axon Instruments) as described previously ([Ottosson et al., 2015]; [Silverå Ejneby et al., 2018]). […]
The conductance, G(V), was calculated as G(V)=I/(V−VK), (1) where I is the steady-state current measured at the end of each test-voltage sweep (100 ms after onset; Clampfit 10.5; Molecular Devices), V is the absolute membrane voltage, and VK is the reversal potential for K^+ ions (set to −80 mV). […] The resin-acid–induced G(V) shift was calculated as V1/2 (compound) − V1/2 (control). The relative change in GMAX was calculated as GMAX (compound) / GMAX (control). […]

[3] = target: T3, Shaker KV channel W454A (Drosophila melanogaster, UniProt P08510, DEL6-46/W454A); experiment: Two-electrode voltage clamp in Xenopus oocytes: W454A; assay type: cell-based; settings: 100 μM, pH 9.0, W454A
T3 construct: expressed in transfected cells; host or cells: Xenopus laevis oocytes (RNA injection)
T3 sequence (P08510 other isoform, or with tags, fused parts or gaps DEL6-46/W454A): as the sequence (P08510 with tags, fused parts or gaps DEL6-46/M356R/A359R/R362Q/W454A) above, with R315M, R318A, Q321R counted along it
From the text: as §1, §3, §2

[4] = target: T4, Shaker KV channel R362Q/W454A/F416A (Drosophila melanogaster, UniProt P08510, DEL6-46/F416A/R362Q/W454A); experiment: Two-electrode voltage clamp in Xenopus oocytes: R362Q/W454A/F416A; assay type: cell-based; settings: 100 μM
T4 construct: expressed in transfected cells; host or cells: Xenopus laevis oocytes (RNA injection)
T4 sequence (P08510 other isoform, or with tags, fused parts or gaps DEL6-46/R362Q/F416A/W454A): as the sequence (P08510 with tags, fused parts or gaps DEL6-46/M356R/A359R/R362Q/W454A) above, with R315M, R318A, F375A counted along it
From the text: as §1, §3, §2

[5] = test system: Shaker KV channel binding sites (S3/S4, S4/pore, residual); experiment: Additive model of site contributions to the G(V) shift (least squares fit); set-up: species or system Drosophila melanogaster
From the text: We also considered a reduced dataset of five mutants for Wu50 to make the comparison between the two compounds equitable (Table S1).
The G(V) shift for each mutant was expressed as a sum of contribution from the various sites: ΔVmodel=ΔVS3/S4+ΔVS4/pore+ΔVResidual, (4) where ΔVS3/S4 is the G(V) shift due to compound binding to the S3/S4 site, ΔVS4/pore is the G(V) shift due to compound binding to the S4/pore site, and ΔVResidual is the G(V) shift due to compound binding to other sites, including the top-VSD site.
Following the assumptions based on observations made using MD simulations, ΔVS3/S4 was set to 0 if the 2R motif was missing (i.e., in the WT channel), ΔVS4/pore could adopt one of four values depending on the type of mutation (R362/W454 = WT configuration, R362Q, W454A, or R362Q/W454A), and ΔVResidual was assumed to be the same for all mutants.
The model further assumed that there is a residual effect that can be due to binding to the VSD-top site or to any other unidentified site and that the contributions due to binding to the S3/S4 site and the S4/pore site depend upon mutations at this site.

[6] = 100 μM, pH 9.0, M356R/A359R/R362Q

T1 sequence (P08510 other isoform, or with tags, fused parts or gaps DEL6-46/M356R/A359R/R362Q): as the sequence (P08510 with tags, fused parts or gaps DEL6-46/M356R/A359R/R362Q/W454A) above, with A413W counted along it

## C[C@@]1(C(=O)O)CCC[C@]2(C)c3cc(Cl)c(Cl)c(Cl)c3CC[C@@H]12 [Wu50]
[1]; 100 µM, pH 9.0, 2R motif/R362Q
  G(V) shift, representative recording (Fig. 4 B): −59.0 mV
[1]; [6]
  GMAX (rel.): 1.93 rel.
  ΔVG(V) (G(V) shift): −54.0 ± 2.3 mV and -54.0 mV
[2]
  GMAX (rel.): 1.50 rel.
  ΔVG(V) (G(V) shift): −56.6 ± 5.8 mV and -56.6 mV
[3]
  GMAX (rel.): 0.56 rel.
  ΔVG(V) (G(V) shift): −8.1 ± 0.4 mV and -8.1 mV
[4]; pH 9.0, R362Q/W454A/F416A
  GMAX (rel.): 0.17 rel.
[4]; R362Q/W454A/F416A, pH 9.0
  Reduction of GMAX: 83%
[5]; eight mutants
  ΔVS3/S4 (contribution of the S3/S4 site in the presence of the 2R mutations): −17 mV
  ΔVS4/pore, R362Q configuration: −34 mV
  ΔVS4/pore, R362Q/W454A configuration: −31 mV
  ΔVS4/pore, WT S4/pore site: −15 mV
[5]; five mutants
  ΔVS3/S4 (contribution of the S3/S4 site in the presence of the 2R mutations): −10 mV
  ΔVS4/pore, R362Q configuration: −37 mV
  ΔVS4/pore, WT S4/pore site: −18 mV
[5]; five mutants (Wu50 constrained to be the same as for eight mutants)
  ΔVResidual (contribution of other sites to the G(V) shift): −10 mV
[5]; no clear difference between five-mutants and eight-mutants datasets
  ΔVS4/pore, W454A configuration: +2 to −6 mV
